22 compounds from PubChem BioAssay AID330 (DTP/NCI, 2004) can be followed below.

For the assay, the system named is P388 leukemia ip, CD2F1 mice, survival T/C. Put plainly: NCI In Vivo Anticancer Drug Screen. Data for tumor model P388 Leukemia (intraperitoneal) in CD2F1 (CDF1) mice. The settings on record: endpoint: median survival time, higher = longer survival. Put shortly:
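Mice carrying the transplanted tumor received test compound or vehicle. Survival was recorded in each group, and the value is the treated-group measurement divided by that of the vehicle-treated control group.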

Where [1] appears, read: dose: 50.0 mg/kg/injection, schedule: Q01DX009 (ip), vehicle: saline with Tween-80.
Setting [2] is: dose: 100.0 mg/kg/injection, schedule: Q01DX009 (ip), vehicle: saline with Tween-80.
[3] abbreviates: dose: 200.0 mg/kg/injection, schedule: Q01DX009 (ip), vehicle: saline with Tween-80.
[4] abbreviates: dose: 60.0 mg/kg/injection, schedule: Q01DX005 (ip), vehicle: Klucel (hydroxypropylcellulose) (HPC).
The mark [5] stands for this setting: dose: 120.0 mg/kg/injection, schedule: Q01DX005 (ip), vehicle: Klucel (hydroxypropylcellulose) (HPC).
Setting [6] is: dose: 240.0 mg/kg/injection, schedule: Q01DX005 (ip), vehicle: Klucel (hydroxypropylcellulose) (HPC).
The mark [7] stands for this setting: dose: 60.0 mg/kg/injection, schedule: Q01DX005 (ip), vehicle: saline with Tween-80.
[8] abbreviates: dose: 120.0 mg/kg/injection, schedule: Q01DX005 (ip), vehicle: saline with Tween-80.
[9] abbreviates: dose: 240.0 mg/kg/injection, schedule: Q01DX005 (ip), vehicle: saline with Tween-80.

Values joined by “and” are separate entries in the source; they are usually repeats but may differ in a detail not shown here. Equal values may be shown once. Inconclusive results and toxic doses are left out.

Regarding `CC(C)(C)c1ccc(S(=O)[O][Sn]([CH3])([CH3])[O]S(=O)c2ccc(C(C)(C)C)cc2)cc1` (stereo not drawn), the T/C (dose: 50.0 mg/kg/injection, schedule: Q01DX001 (ip), vehicle: Klucel (hydroxypropylcellulose) (HPC)) is 110 % of control and the T/C (dose: 200.0 mg/kg/injection, schedule: Q01DX001 (ip), vehicle: Klucel (hydroxypropylcellulose) (HPC)) was 114 % of control.

For `COC(=O)c1ccc2cc1Nc1c(C#N)cnc(=S)n1-2`, the T/C is 114 % of control under setting [1], 112 % of control under setting [2] and 90 % of control under setting [3].

Regarding `CCCCS[Si](SC(C)(C)C)(SC(C)(C)C)SC(C)(C)C`, the T/C (dose: 100.0 mg/kg/injection, schedule: Q04DX002 (ip), vehicle: suspension in saline) is 95 % of control; the T/C (dose: 200.0 mg/kg/injection, schedule: Q04DX002 (ip), vehicle: suspension in saline) was 99 % of control; the T/C (dose: 400.0 mg/kg/injection, schedule: Q04DX002 (ip), vehicle: suspension in saline) is 93 % of control.

For `COc1ccc2c(NCCCCCCCCNc3c4ccc(OC)cc4nc4cc([N+](=O)[O-])ccc34)c3ccc([N+](=O)[O-])cc3nc2c1`, the T/C (dose: 0.63 mg/kg/injection, schedule: Q01DX009 (ip), vehicle: other) is 88 % of control; the T/C (dose: 1.25 mg/kg/injection, schedule: Q01DX009 (ip), vehicle: other) is 88 % of control; the T/C (dose: 2.5 mg/kg/injection, schedule: Q01DX009 (ip), vehicle: other) is 119 % of control; the T/C (dose: 5.0 mg/kg/injection, schedule: Q01DX009 (ip), vehicle: other) is 120 % of control; the T/C (dose: 10.0 mg/kg/injection, schedule: Q01DX009 (ip), vehicle: other) is 121 % of control; the T/C (dose: 20.0 mg/kg/injection, schedule: Q01DX009 (ip), vehicle: other) was 120 % of control.

On to `[NH-]CC(=O)O.[NH-]CC(=O)O.[Ni+2]`, for which the T/C by setting is: (dose: 6.25 mg/kg/injection, schedule: Q01DX005 (ip), vehicle: saline with Tween-80) 100 % of control; (dose: 12.5 mg/kg/injection, schedule: Q01DX005 (ip), vehicle: saline with Tween-80) 100 % of control.

As to `CCCNC(=O)NS(=O)(=O)c1ccc(Cl)cc1`, the T/C (dose: 50.0 mg/kg/injection, schedule: Q04DX003 (ip), vehicle: saline with Tween-80) was 102 % of control; the T/C (dose: 100.0 mg/kg/injection, schedule: Q04DX003 (ip), vehicle: saline with Tween-80) is 109 % of control; the T/C (dose: 200.0 mg/kg/injection, schedule: Q04DX003 (ip), vehicle: saline with Tween-80) was 100 % of control.

In the case of `COC(=O)c1c(C)oc(C)c1-c1ccc(OCc2ccccc2)c(OC)c1`, the T/C was 114 % of control under setting [4], 98 % of control under setting [5] and 94 % of control under setting [6].

Turning to `Oc1ccc(Cl)cc1C1CCCCC1`, the T/C (dose: 50.0 mg/kg/injection, schedule: Q01DX009 (ip), vehicle: saline) was 100 % of control; the T/C (dose: 100.0 mg/kg/injection, schedule: Q01DX009 (ip), vehicle: saline) was 100 % of control; the T/C (dose: 200.0 mg/kg/injection, schedule: Q01DX009 (ip), vehicle: saline) was 98 % of control.

On to `C=C1CC2(CCC3C4CC=C5CC(O)CCC5(C)C4CCC32C)OC1=O` (stereo not drawn), for which the T/C is 104 % of control (dose: 100.0 mg/kg/injection, schedule: Q04DX003 (ip), vehicle: Klucel (hydroxypropylcellulose) (HPC)); 105 % of control (dose: 200.0 mg/kg/injection, schedule: Q04DX003 (ip), vehicle: Klucel (hydroxypropylcellulose) (HPC)); 97 % of control (dose: 400.0 mg/kg/injection, schedule: Q04DX003 (ip), vehicle: Klucel (hydroxypropylcellulose) (HPC)).

In the case of `CCOc1cc2c(cc1C(C)(C)c1ccc(OC)cc1)OCO2`, the T/C reads like this: under setting [7], 98 % of control; under setting [8], 109 % of control and 113 % of control; under setting [9], 123 % of control.

Consider `N#Cc1c(F)cccc1N(Cc1cccnc1)C(=S)Nc1ccc(Cl)c(Cl)c1`, for which the T/C is 110 % of control (dose: 50.0 mg/kg/injection, schedule: Q01DX005 (ip), vehicle: Klucel (hydroxypropylcellulose) (HPC)); 110 % of control (dose: 100.0 mg/kg/injection, schedule: Q01DX005 (ip), vehicle: Klucel (hydroxypropylcellulose) (HPC)); 105 % of control (dose: 200.0 mg/kg/injection, schedule: Q01DX005 (ip), vehicle: Klucel (hydroxypropylcellulose) (HPC)).

In the case of `COC(=O)c1onc2ccc(Cl)cc12`, the T/C by setting is: (dose: 18.75 mg/kg/injection, schedule: Q01DX005 (ip), vehicle: Klucel (hydroxypropylcellulose) (HPC)) 99 % of control; (dose: 37.5 mg/kg/injection, schedule: Q01DX005 (ip), vehicle: Klucel (hydroxypropylcellulose) (HPC)) 92 % of control; (dose: 75.0 mg/kg/injection, schedule: Q01DX005 (ip), vehicle: Klucel (hydroxypropylcellulose) (HPC)) 93 % of control; (dose: 150.0 mg/kg/injection, schedule: Q01DX005 (ip), vehicle: Klucel (hydroxypropylcellulose) (HPC)) 95 % of control.

As to `C#C/C=C/CC1O[C@H](/C=C/C)C/C=C\CC1Cl` (stereo partly drawn), the T/C is 94 % of control (dose: 7.8 mg/kg/injection, schedule: Q01DX005 (ip), vehicle: Klucel (hydroxypropylcellulose) (HPC)); 99 % of control (dose: 15.62 mg/kg/injection, schedule: Q01DX005 (ip), vehicle: Klucel (hydroxypropylcellulose) (HPC)); 96 % of control (dose: 31.25 mg/kg/injection, schedule: Q01DX005 (ip), vehicle: Klucel (hydroxypropylcellulose) (HPC)); 88 % of control (dose: 62.5 mg/kg/injection, schedule: Q01DX005 (ip), vehicle: Klucel (hydroxypropylcellulose) (HPC)).

For `C=C1C(=O)OC2/C=C(\C)CC/C=C(/C(=O)OC)C(OC(C)=O)C(OC(=O)C(C)(O)C(C)O)C12` (stereo not drawn), the T/C reads like this: (dose: 3.0 mg/kg/injection, schedule: Q01DX009 (ip), vehicle: Klucel (hydroxypropylcellulose) (HPC)) 116 % of control; (dose: 12.0 mg/kg/injection, schedule: Q01DX009 (ip), vehicle: Klucel (hydroxypropylcellulose) (HPC)) 122 % of control; (dose: 24.0 mg/kg/injection, schedule: Q01DX009 (ip), vehicle: Klucel (hydroxypropylcellulose) (HPC)) 120 % of control.

As for `CN(C)c1ccc(C(=C2C=CC(=[N+](C)C)C=C2)c2ccc(N(C)C)cc2)cc1`, the T/C was 108 % of control (dose: 0.19 mg/kg/injection, schedule: Q01DX009 (ip), vehicle: saline) and 123 % of control (dose: 0.39 mg/kg/injection, schedule: Q01DX009 (ip), vehicle: saline).

Consider `C1=CC2OC2CCCCCCCC1` (mixture of isomers), for which the T/C by setting is: (dose: 25.0 mg/kg/injection, schedule: Q01DX009 (ip), vehicle: saline with Tween-80) 106 % of control; under setting [1], 107 % of control; under setting [2], 109 % of control.

Consider `O=[N+]([O-])/C=C/c1cc2c(cc1O)OCO2`, for which the T/C runs as follows: (dose: 75.0 mg/kg/injection, schedule: Q01DX009 (ip), vehicle: Klucel (hydroxypropylcellulose) (HPC)) 115 % of control; (dose: 150.0 mg/kg/injection, schedule: Q01DX009 (ip), vehicle: Klucel (hydroxypropylcellulose) (HPC)) 101 % of control; (dose: 300.0 mg/kg/injection, schedule: Q01DX009 (ip), vehicle: Klucel (hydroxypropylcellulose) (HPC)) 115 % of control.

As for `CC1(c2ccc(N)cc2)NC(=O)NC1=O` (stereo not drawn), the T/C is, setting by setting: (dose: 50.0 mg/kg/injection, schedule: Q01DX009 (ip), vehicle: Klucel (hydroxypropylcellulose) (HPC)) 99 % of control; (dose: 100.0 mg/kg/injection, schedule: Q01DX009 (ip), vehicle: Klucel (hydroxypropylcellulose) (HPC)) 96 % of control.

For `NC(N)=NS(=O)(=O)c1ccc(N=Nc2c(O)n(-c3ccccc3)c(=S)n(-c3ccccc3)c2=O)cc1`, the T/C under setting [4] is 105 % of control, the T/C under setting [5] is 99 % of control and the T/C under setting [6] is 99 % of control.

For the compound `N=c1c2ccccc2cc2c3ccccc3ccn12`, the T/C was 115 % of control under setting [7], 99 % of control under setting [8] and 108 % of control under setting [9].

Regarding `Cc1ccc(C)c2c3c([nH]c12)-c1ccccc1CC3`, the T/C is, setting by setting: under setting [1], 103 % of control; under setting [2], 107 % of control; under setting [3], 103 % of control.

In the case of `C=CCN(CC=C)P(=O)(N1CC1C)N1CC1C` (stereo not drawn), the T/C (dose: 1.65 mg/kg/injection, schedule: Q01DX009 (ip), vehicle: water) was 166 % of control; the T/C (dose: 2.5 mg/kg/injection, schedule: Q01DX009 (ip), vehicle: water) was 157 % of control; the T/C (dose: 3.75 mg/kg/injection, schedule: Q01DX009 (ip), vehicle: water) was 118 % of control; the T/C (dose: 5.0 mg/kg/injection, schedule: Q01DX009 (ip), vehicle: saline) is 97 % of control.
